# Results published in patent US11793824B2, “Administration of nicotinamide mononucleotide in the treatment of disease” (Washington University, priority 2013, dated 2023).
# Entries after “also recorded” stand apart in the source; their conditions may differ.
# Legend:
# Assay type in all cases: in vivo, mouse
# [1] = Oxygen consumption, energy expenditure, respiratory quotient (Oxymax Lab Animal Monitoring System); conditions: 100 mg/kg and 300 mg/kg groups, 12 month time point
# Experimental: A 12 month-long NMN administration study using wild-type mice under a regular chow-fed condition was conducted. NMN was administered through drinking water, and two doses of NMN, 100 and 300 mg/kg body weight/day, were tested. […] To assess beneficial and possible adverse effects of NMN, a variety of physiological parameters were periodically monitored, including body weight, body temperature, food and water intake, fed and fasted blood glucose levels, fed and fasted plasma lipid panels, and glucose and insulin tolerance, in NMN-administered and control mice. Blood chemistry, blood cell counts, urine strip test, and other physiological tests including physical activity test were also checked.
# In this long-term NMN administration study (See Methods; Administration of NMN through Drinking Water and Determination of NMN Stability and Toxicity), the inventors measured oxygen consumption, energy expenditure, and respiratory quotient for control, mice administered 100 mg/kg NMN per day and mice administered 300 mg/kg NMN per day at the 12 month time point by using the Oxymax Lab Animal Monitoring System (Columbus Instruments, Columbus, OH).
# NSPCs = experiment: NSPC pool in the dentate gyrus after long-term NMN in drinking water
# Experimental: All tissue sections were and cells incubated in blocking/permeabilization solution containing 10% normal goat serum, 1% BSA, and 0.3% Triton-X in PBS for 45 to 60 min prior to 24 or 48 h of incubation with primary antibodies in 5% normal goat serum and 0.1% Triton-X in PBS at 4° C. at the concentrations listed below. […], Alexa488, or Cy3 conjugated-secondary antibodies diluted in 2% normal goat serum, 1% BSA, and 0.1% Triton-X in PBS were added for 2 h at room temperature. Nuclei were stained with 4,6-diamidino-2-phenylindole (Sigma) for 10 min at room temperature.
# Cells were harvested by fixation with 4% paraformaldehyde in PBS (15 min). Mice were anesthetized by i.p. injection of ketamine and xylazine, and perfused transcardially through left ventricle with cold 0.1 M phosphate buffer at pH 7.4 followed by a phosphate-buffered solution of 4% paraformaldehyde (PFA). Brains were postfixed with 4% PFA overnight and placed into 15% sucrose followed by 30% sucrose, frozen, and stored at −80° C. until use. Coronal sections (30 μm) were made by cryostat in a 1 in 8 series and stored at −30° C. in cryoprotectant until use. To remove any endogenous peroxidase activity, all sections were incubated with 3% H2O2 for 10 min. […]
# For tissue sections, high-magnification (20×, 0.8DICII or 40× oil 1.3DICII) microscopic imaging was performed using a Zeiss Axioimage.Z1. […] Quantification was performed blinded to genotype on 3-8 tissue sections per animal. Cell densities were estimated by the number of immunoreactive cells divided by the area of the structure, measured with ImageJ. […] Quantification was performed blinded to genotype on 2 to 3 fields of view per sample and treatment, from 3 to 9 independent samples.
# The inventors hypothesized that systemic administration of NMN may be able to correct age-associated defects in NSPC functionality. […] Quantification of Ki67+ (H) and Dcx+ (I) cells in the DG per unit area of the DG (n=5). […]
# NAMPT rod-CKO mice = experiment: ERG rescue in NAMPT rod-CKO mice
# Source text: The inventors examined the effect of selectively disrupting NAD biosynthesis within PR. The inventors utilized the cre-lox strategy to generate mice that had NAMPT conditionally deleted from either rods (NAMPT rod-CKO) or cones (NAMPT cone-CKO). The NAMPT fl/fl mice as well as the rhodopsin-cre and cone opsin-cre mice have been previously characterized. Both rod and cone cko mice are generated with normal Mendelian frequencies and are born normal with no observable systemic abnormalities (data not shown). All structural and functional analyses performed in CKO mice are analyzed in comparison to littermate controls. Rods constitute a majority of the PR neurons (97% of all photoreceptors). […] Neurosensory retinal degeneration was associated with secondary atrophy and pallor of the optic nerve (FIG. 29C).
# The present inventors determined that exogenous supplementation with NMN is able to rescue PR neurons from cell death in CKO mice. Intraperitoneal (i.p.) delivery was chosen to obtain early and sustained levels of NMN. In these experiments, NAMPT rod-CKO mice were given NMN (150 mg/kg) or PBS i.p. daily starting at day P5. […] There was no effect of NMN on littermate control animals.
# [2] = NMN in drinking water from 6 to 18 months of age
smiles,measurement,setting,value
"NC(=O)c1ccc[n+]([C@@H]2O[C@H](COP(=O)([O-])O)[C@@H](O)[C@H]2O)c1 [NMN, nicotinamide mononucleotide]",oxygen consumption,[1],significantly increased
same,respiratory quotient,[1],significantly decreased
same,energy expenditure,[1]; through 24 hours,significant increases
same,Type 1 (radial Nestin+) NSPC population with age,NSPCs; 300 mg/kg body weight in drinking water from 6 to 18 months of age,improved maintenance; also recorded: able to maintain the NSPC pool
same,population of newborn neurons (Dcx+) in the DG,NSPCs; [2],trended to increase
same,population of proliferating cells (Ki67+) in the DG,NSPCs; [2],remained similar to controls
same,effect on littermate control animals,NAMPT rod-CKO mice; NMN 150 mg/kg i.p. daily,no effect
same,photopic and scotopic function (ERG),"NAMPT rod-CKO mice; NMN 150 mg/kg i.p. daily from P5, ERG at 4 weeks, vs PBS",significant rescue
